In US11498899B2, “Nitrone herbicides” (FMC Corporation, priority 2016, dated 2022):

Tests used:
[1] = system: ryegrass, Italian (Italian ryegrass, Lolium multiflorum); assay: Test A preemergence, visual injury rating 0-100; assay type: in vivo; conditions: for Ryegrass, Italian plant response rating (0 to 100 scale): 125 g ai/ha
[2] = system: ragweed (common ragweed, Ambrosia elatior); assay: Test A preemergence, visual injury rating 0-100; assay type: in vivo; conditions: for Ragweed plant response rating (0 to 100 scale): 125 g ai/ha
[3] = system: pigweed (Amaranthus retroflexus); assay: Test A preemergence, visual injury rating 0-100; assay type: in vivo; conditions: for Pigweed plant response rating (0 to 100 scale): 125 g ai/ha
[4] = system: foxtail, green (green foxtail, Setaria viridis); assay: Test A preemergence, visual injury rating 0-100; assay type: in vivo; conditions: for Foxtail, Green plant response rating (0 to 100 scale): 125 g ai/ha
kochia (Kochia scoparia) [5] = assay: Test A preemergence, visual injury rating 0-100; assay type: in vivo; conditions: for Kochia plant response rating (0 to 100 scale): 125 g ai/ha
rice (Oryza sativa) = assay: Test B flooded paddy test, visual rating 0-100 (0 no effect, 100 complete control); conditions: Flood, 250 g ai/ha, applied to paddy water, rated after 13 to 15 days
[6] = system: barnyardgrass (Echinochloa crus-galli); assay: Test A postemergence, visual injury rating 0-100; assay type: in vivo; conditions: 0 to 100 scale
[7] = system: ryegrass, Italian (Italian ryegrass, Lolium multiflorum); assay: Test A postemergence, visual injury rating 0-100; assay type: in vivo; conditions: 0 to 100 scale
[8] = system: ragweed (common ragweed, Ambrosia elatior); assay: Test A postemergence, visual injury rating 0-100; assay type: in vivo; conditions: 0 to 100 scale
[9] = system: pigweed (Amaranthus retroflexus); assay: Test A postemergence, visual injury rating 0-100; assay type: in vivo; conditions: 0 to 100 scale
[10] = system: foxtail, green (green foxtail, Setaria viridis); assay: Test A postemergence, visual injury rating 0-100; assay type: in vivo; conditions: 0 to 100 scale
[11] = system: galium (catchweed bedstraw, Galium aparine); assay: Test A postemergence, visual injury rating 0-100; assay type: in vivo; conditions: 0 to 100 scale
corn (Zea mays) = assay: Test A postemergence, visual injury rating 0-100; assay type: in vivo; conditions: 0 to 100 scale
kochia (Kochia scoparia) [12] = assay: Test A postemergence, visual injury rating 0-100; assay type: in vivo; conditions: 0 to 100 scale
[13] = system: wheat (Triticum aestivum); assay: Test A postemergence, visual injury rating 0-100; assay type: in vivo; conditions: 0 to 100 scale
[14] = system: blackgrass (Alopecurus myosuroides); assay: Test A postemergence, visual injury rating 0-100; assay type: in vivo; conditions: 0 to 100 scale
[15] = system: barnyardgrass (Echinochloa crus-galli); assay: Test A preemergence, visual injury rating 0-100 (0 no effect, 100 complete control); assay type: in vivo; conditions: for Barnyardgrass plant response rating (0 to 100 scale): 125 g ai/ha
[16] = system: barnyardgrass (Echinochloa crus-galli); assay: Test B flooded paddy test, visual rating 0-100; conditions: Flood, 250 g ai/ha, applied to paddy water, rated after 13 to 15 days
[17] = system: ducksalad (Heteranthera limosa); assay: Test B flooded paddy test, visual rating 0-100; conditions: Flood, 250 g ai/ha, applied to paddy water, rated after 13 to 15 days
[18] = 31 g ai/ha, 0 to 100 scale (0 no effect, 100 complete control), approx. 10 days

Row | Compound | Ryegrass, Italian plant response rating (0 to 100 scale) [1] | Ragweed plant response rating (0 to 100 scale) [2] | Pigweed plant response rating (0 to 100 scale) [3] | Foxtail, Green plant response rating (0 to 100 scale) [4] | Kochia plant response rating (0 to 100 scale) (kochia (Kochia scoparia) [5]) | Rice plant response rating (0 to 100 scale) (rice (Oryza sativa)) | Barnyardgrass plant response rating ([6]; 125 g ai/ha) | Ryegrass, Italian plant response rating ([7]; 125 g ai/ha) | Ragweed plant response rating ([8]; 125 g ai/ha) | Pigweed plant response rating ([9]; 125 g ai/ha) | Foxtail, Green plant response rating ([10]; 125 g ai/ha) | Galium plant response rating ([11]; 125 g ai/ha) | Corn plant response rating (corn (Zea mays); 125 g ai/ha) | Kochia plant response rating (kochia (Kochia scoparia) [12]; 125 g ai/ha) | Wheat plant response rating ([13]; 125 g ai/ha) | Blackgrass plant response rating ([14]; 125 g ai/ha) | Barnyardgrass plant response rating (0 to 100 scale) [15] | Barnyardgrass plant response rating (0 to 100 scale) [16] | Ducksalad plant response rating (0 to 100 scale) [17] | Ryegrass, Italian plant response rating ([1]; 500 g ai/ha, 0 to 100 scale) | further results
1 | CC1=[N+]([O-])[C@H](C(=O)Nc2cccc(F)c2F)[C@@H](c2ccc(Cl)cc2)C1 [Compound 40, (2S,3R)-3-(4-chlorophenyl)-N-(2,3-difluorophenyl)-3,4-dihydro-5-methyl-2H-pyrrole-2-carboxamide 1-oxide] | 10 | 80 | 80 | 100 | 80 | 25 | 90 | 20 | 0 | 0 | 80 | 60 | 30 | 0 | 10 | 60 | 100 | 80 | 95 |  | Ryegrass, Italian plant response rating [1, 18]: 0; Ragweed plant response rating [2, 18]: 20; Pigweed plant response rating [3, 18]: 0; Foxtail, Green plant response rating [4, 18]: 100; Kochia plant response rating (kochia (Kochia scoparia) [5]; [18]): 0; Barnyardgrass plant response rating ([6]; 31 g ai/ha): 80; Ryegrass, Italian plant response rating ([7]; 31 g ai/ha): 0; Ragweed plant response rating ([8]; 31 g ai/ha): 0; Pigweed plant response rating ([9]; 31 g ai/ha): 0; Foxtail, Green plant response rating ([10]; 31 g ai/ha): 40; Galium plant response rating ([11]; 31 g ai/ha): 10; Corn plant response rating (corn (Zea mays); 31 g ai/ha): 20; Kochia plant response rating (kochia (Kochia scoparia) [12]; 31 g ai/ha): 0; Wheat plant response rating ([13]; 31 g ai/ha): 0; Blackgrass plant response rating ([14]; 31 g ai/ha): 0; Barnyardgrass plant response rating [15, 18]: 100
2 | CC1=[N+]([O-])C(C(=O)Nc2ccccc2)C(c2ccc(F)c(F)c2)C1 (racemic) [Compound 17] | 0 | 0 | 0 | 0 | 0 | 0 | 0 | 0 | 0 | 0 | 20 | 0 | 0 | 0 | 0 | 0 | 0 | 0 | 40 | 0 | Ragweed plant response rating ([2]; 500 g ai/ha, 0 to 100 scale): 0; Pigweed plant response rating ([3]; 500 g ai/ha, 0 to 100 scale): 0; Foxtail, Green plant response rating ([4]; 500 g ai/ha, 0 to 100 scale): 50; Kochia plant response rating (kochia (Kochia scoparia) [5]; 500 g ai/ha, 0 to 100 scale): 0; Barnyardgrass plant response rating ([6]; 500 g ai/ha): 0; Ryegrass, Italian plant response rating ([7]; 500 g ai/ha): 0; Ragweed plant response rating ([8]; 500 g ai/ha): 0; Pigweed plant response rating ([9]; 500 g ai/ha): 0; Foxtail, Green plant response rating ([10]; 500 g ai/ha): 20; Galium plant response rating ([11]; 500 g ai/ha): 0; Corn plant response rating (corn (Zea mays); 500 g ai/ha): 20; Kochia plant response rating (kochia (Kochia scoparia) [12]; 500 g ai/ha): 0; Wheat plant response rating ([13]; 500 g ai/ha): 0; Blackgrass plant response rating ([14]; 500 g ai/ha): 0; Barnyardgrass plant response rating ([15]; 500 g ai/ha, 0 to 100 scale): 20
3 | CC1=[N+]([O-])C(C(=O)Nc2cccc(F)c2F)C(c2ccc(Br)cc2)C1 (racemic) [Compound 20] | 0 | 20 | 60 | 60 | 0 | 0 | 10 | 0 | 0 | 0 | 0 | 30 | 0 | 0 | 0 | 0 | 60 | 95 | 100 | 20 | Ragweed plant response rating ([2]; 500 g ai/ha, 0 to 100 scale): 60; Pigweed plant response rating ([3]; 500 g ai/ha, 0 to 100 scale): 80; Foxtail, Green plant response rating ([4]; 500 g ai/ha, 0 to 100 scale): 90; Kochia plant response rating (kochia (Kochia scoparia) [5]; 500 g ai/ha, 0 to 100 scale): 50; Barnyardgrass plant response rating ([6]; 500 g ai/ha): 50; Ryegrass, Italian plant response rating ([7]; 500 g ai/ha): 30; Ragweed plant response rating ([8]; 500 g ai/ha): 30; Pigweed plant response rating ([9]; 500 g ai/ha): 40; Foxtail, Green plant response rating ([10]; 500 g ai/ha): 60; Galium plant response rating ([11]; 500 g ai/ha): 40; Corn plant response rating (corn (Zea mays); 500 g ai/ha): 0; Kochia plant response rating (kochia (Kochia scoparia) [12]; 500 g ai/ha): 30; Wheat plant response rating ([13]; 500 g ai/ha): 30; Blackgrass plant response rating ([14]; 500 g ai/ha): 30; Barnyardgrass plant response rating ([15]; 500 g ai/ha, 0 to 100 scale): 90
4 | CC1=[N+]([O-])C(C(=O)Nc2cccc(F)c2F)C(c2ccccc2)C1 (racemic) [Compound 16] | 0 | 0 | 0 | 100 | 0 | 0 | 80 | 0 | 0 | 0 | 10 | 0 | 0 | 0 | 0 | 0 | 100 | 85 | 100 | 0 | Ragweed plant response rating ([2]; 500 g ai/ha, 0 to 100 scale): 20; Pigweed plant response rating ([3]; 500 g ai/ha, 0 to 100 scale): 70; Foxtail, Green plant response rating ([4]; 500 g ai/ha, 0 to 100 scale): 100; Kochia plant response rating (kochia (Kochia scoparia) [5]; 500 g ai/ha, 0 to 100 scale): 30; Barnyardgrass plant response rating ([6]; 500 g ai/ha): 90; Ryegrass, Italian plant response rating ([7]; 500 g ai/ha): 0; Ragweed plant response rating ([8]; 500 g ai/ha): 20; Pigweed plant response rating ([9]; 500 g ai/ha): 20; Foxtail, Green plant response rating ([10]; 500 g ai/ha): 80; Galium plant response rating ([11]; 500 g ai/ha): 30; Corn plant response rating (corn (Zea mays); 500 g ai/ha): 0; Kochia plant response rating (kochia (Kochia scoparia) [12]; 500 g ai/ha): 20; Wheat plant response rating ([13]; 500 g ai/ha): 0; Blackgrass plant response rating ([14]; 500 g ai/ha): 0; Barnyardgrass plant response rating ([15]; 500 g ai/ha, 0 to 100 scale): 100
5 | CSc1ccccc1NC(=O)C1C(c2ccc(C(F)(F)F)cc2)CC(C)=[N+]1[O-] (racemic) [Compound 29] | 0 | 20 | 10 | 20 | 0 | 0 | 10 | 0 | 0 | 10 | 20 | 40 | 0 | 0 | 0 | 20 | 0 | 0 | 0 | 20 | Ragweed plant response rating ([2]; 500 g ai/ha, 0 to 100 scale): 100; Pigweed plant response rating ([3]; 500 g ai/ha, 0 to 100 scale): 90; Foxtail, Green plant response rating ([4]; 500 g ai/ha, 0 to 100 scale): 100; Kochia plant response rating (kochia (Kochia scoparia) [5]; 500 g ai/ha, 0 to 100 scale): 20; Barnyardgrass plant response rating ([6]; 500 g ai/ha): 30; Ryegrass, Italian plant response rating ([7]; 500 g ai/ha): 0; Ragweed plant response rating ([8]; 500 g ai/ha): 60; Pigweed plant response rating ([9]; 500 g ai/ha): 30; Foxtail, Green plant response rating ([10]; 500 g ai/ha): 50; Galium plant response rating ([11]; 500 g ai/ha): 60; Corn plant response rating (corn (Zea mays); 500 g ai/ha): 0; Kochia plant response rating (kochia (Kochia scoparia) [12]; 500 g ai/ha): 0; Wheat plant response rating ([13]; 500 g ai/ha): 0; Blackgrass plant response rating ([14]; 500 g ai/ha): 30; Barnyardgrass plant response rating ([15]; 500 g ai/ha, 0 to 100 scale): 80
